Data taken from patent US20250177400A1, “METHODS OF THERAPEUTICS DEVELOPMENT OF GLIOBLASTOMA MULTIFORME BY QUINAZOLINE DERIVATIVES AND THEREOF” (priority 2023, published 2025).
Entries after “also recorded” stand apart in the source; their conditions may differ. Read-outs that look alike come from different tables or passages of the source.

Legend:
[1] = test system: Glioblastoma multiforme (GBM) cells (T98-G); experiment: Induction of apoptosis in cultured glioblastoma multiforme cells (microscopy); format: cell-based, human; settings: for induction of apoptosis in GBM cells: T98-G cells, 50 and 100 μM, three days, compared to vehicle control
Description: FIG. 2 depicts a novel quinazoline derivative (Compound 1:6-Pyridin-2-yl -5,6-dihydro-benzo[4,5]imidazo[1,2-c]quinazoline) that induces apoptosis in Glioblastoma (GBM) cells. Cells were treated with different concentrations of Compound 1 (0.1, 1, 10, 50, 100μ) or vehicle (control).
(§1) Glioblastoma multiforme (GBM) cells (T98-G) were cultured in 6 wells for ˜90% confluent. Cells were treated with different concentrations of Compound 1 (0.1, 1, 10, 50, 100μ) or vehicle (control). […] Cell viability was tested by trypan blue exclusion assay.
(§2) GBM cell line T98-G (ATCC-CRL-1690) was obtained and authenticated by the American Type Culture Collection (Cat #30-2003; ATCC, Manassas, VA). Cells were cultured and maintained in low glucose Dulbecco's Modified Eagle Medium (DMEM) (Thermo Fisher Scientific) supplemented with 10% fetal bovine serum (FBS, Thermo Fisher Scientific) at 37° C. in a 5% CO2 humidified atmosphere and passed in less than 6 months. Human neuroblastoma cells. Human SH-SY5Y neuroblastoma cells (Sigma-Aldrich) were cultured in 45% F12K, 45% Modified Eagle Medium (MEM), supplemented with 10% FBS in tissue culture incubator (37° C., 5% CO2, 90% humidity). Primary skin fibroblasts. Primary skin fibroblasts were obtained from the Coriell Institute for Medical Research (Camden, NJ; Cat #AG09555; the Aging Cell Culture Repository of the National Institute on Aging) and maintained in DMEM with low glucose (Invitrogen, Grand Island, NY) supplemented with 10% FBS in 6-well culture plates (37° C., 5% CO2, 90% humidity) until reaching 90-100% confluence. In addition, cells were treated with either vehicle, 50, and 100 μM quinazoline derivatives and propentofylline. The condition of the cultured cells was monitored with an inverted cell culture microscope (Westover Digital AMID Model 2000, Westover Scientific, Bothell, WA), controlled by a computer, and images were captured with image acquisition software (Micron 2.0.0, Westover Scientific).

[2] = test system: GBM cells; experiment: Model tumor spheroid assay: GBM cell invasion in three-dimensional Matrigel matrix; format: cell-based, human; settings: 3D Matrigel matrix; for invasive cells in multicellular spheroids: 50 μM
From the text: FIG. 5 depicts the Human glioblastoma multiforme (GBM) cell invasion in a three-dimensional Matrigel basement membrane. Model Tumor Spheroid assay: GBM cells form a spheroid tumor-like biological entity in three-dimensional space. Proliferation and invasion of GBM in 3-dimensional Matrigel matrix in 5 days (A) and 12 days (B). Arrows indicate invasive cells in model tumor spheroids. The proliferation and invasion of GBM in a three-dimensional Matrigel matrix have been studied for days. […] Arrows indicate invasive cells.
GBM cells were incubated in a previously prepared 3-dimensional Matrigel matrix. Multicellular spheroids were formed after three days of incubation. The mechanical properties of cell invasion of patient-derived primary glioblastoma cells have been studied recently in 3-D matrigel matric (Grundy et al., 2016). Cellular invasiveness was monitored in multicellular spheroids of GBM embedded in 3D matrigel matric (FIG. 5).

[3] = test system: integrin β1 (CD29); experiment: Western blot of integrin β1 levels in GBM cells; format: cell-based, human; settings: normalized with β-tubulin, similar concentrations
From the text: FIG. 6 depicts a novel quinazoline derivative (Compound 1:-Pyridin-2-yl -5,6-dihydro-benzo[4,5]imidazo[1,2-c]quinazoline) that decreases glioblastoma cell invasion by decreasing integrin β1 (CD29) levels. Intergrin β1 band decreased in Western blot analyses both in normal culture (A), and serum-free condition (B) by the treatment of compound 1. Propentofylline treatment produces reverse effects (A). Relative expression levels of integrin β1 is normalized with β-tubulin as a loading control in Western blot analyses. […] Standard Error of Mean (SEM) is calculated from three independent measurements.
Integrins have an important role to play in cell invasion in tumorigenic environments. […] We also compared the effectiveness of reducing β1 integrin level with propentofylline in the same concentration. […] Deletion of β1 integrin reduced tumorigenesis in in-vivo xenograft tumor growth animal model (Hou et al., 2016).
Reagents and antibodies: Propentofylline (molecular weight 306.366; [1-(5O-oxohexyl)-3-methyl-7-propylxanthine) was purchased from Sigma-Aldrich (St. Louis). Propentofylline and synthetic quinazoline derivatives were dissolved in DMSO (30-60 mM, depending on solubility). Aliquots were stored at −20 C. Stock solutions were dissolved in a culture medium at different concentrations just before each experiment. Rabbit monoclonal anti-Integrin beta 1 [CD29] antibody (Cat #04-1109) was purchased from Millipore (Temecula, CA). Anti-tubulin III antibody (Cat #79-720) was purchased from ProSci (Poway, CA). Antibody for PKCε (C-15) (Santa Cruz Biotechnology, Santa Cruz, CA; Cat No: sc-214) was used to detect PKCε and has been recommended for detection of PKCε of human origin by western blotting and immunofluorescence analysis by the manufacturer. Quinazoline derivatives were synthesized in the laboratory.

[4] = test system: GBM cells; settings: 2012, cited from earlier work; for GBM cell invasion and survival: Dhruv et al., 2016, Jacob et al.
[5] = test system: Glioblastoma multiforme (GBM) cells (T98-G); experiment: Cell viability by trypan blue exclusion assay; format: cell-based, human; settings: 50 and 100 μM, 3 days
Description: FIG. 3 depicts concentration dependence cell viability of human glioblastoma multiforme (GBM) cells by novel quinazoline derivative (Compound 1: 6-Pyridin-2-yl-5,6-dihydro-benzo[4,5]imidazo[1,2-c]quinazoline).
as §1
as §2, with “Primary skin fibroblasts were obtained from the Coriell Institute for Medical Research (Camden, NJ; Cat #AG09555; the Aging Cell Culture Repository of the National Institute on Aging) and maintained in DMEM with low glucose (Invitrogen, Grand Island, NY) supplemented with 10% FBS in 6-well culture plates (37° C., 5% CO2, 90% humidity) until reaching 90-100% confluence. In addition, cells were treated with either vehicle, 50, and 100 μM quinazoline derivatives and propentofylline.” left out

[6] = biological target: T1, PKCε (Homo sapiens, UniProt Q02156); experiment: PKCε activity (membrane/cytosol ratio) in neuroblastoma cells; format: cell-based; settings: SHSY5Y cells
T1 construct: host or cells: SH-SY5Y human neuroblastoma cells
T1 sequence (Q02156 1-737): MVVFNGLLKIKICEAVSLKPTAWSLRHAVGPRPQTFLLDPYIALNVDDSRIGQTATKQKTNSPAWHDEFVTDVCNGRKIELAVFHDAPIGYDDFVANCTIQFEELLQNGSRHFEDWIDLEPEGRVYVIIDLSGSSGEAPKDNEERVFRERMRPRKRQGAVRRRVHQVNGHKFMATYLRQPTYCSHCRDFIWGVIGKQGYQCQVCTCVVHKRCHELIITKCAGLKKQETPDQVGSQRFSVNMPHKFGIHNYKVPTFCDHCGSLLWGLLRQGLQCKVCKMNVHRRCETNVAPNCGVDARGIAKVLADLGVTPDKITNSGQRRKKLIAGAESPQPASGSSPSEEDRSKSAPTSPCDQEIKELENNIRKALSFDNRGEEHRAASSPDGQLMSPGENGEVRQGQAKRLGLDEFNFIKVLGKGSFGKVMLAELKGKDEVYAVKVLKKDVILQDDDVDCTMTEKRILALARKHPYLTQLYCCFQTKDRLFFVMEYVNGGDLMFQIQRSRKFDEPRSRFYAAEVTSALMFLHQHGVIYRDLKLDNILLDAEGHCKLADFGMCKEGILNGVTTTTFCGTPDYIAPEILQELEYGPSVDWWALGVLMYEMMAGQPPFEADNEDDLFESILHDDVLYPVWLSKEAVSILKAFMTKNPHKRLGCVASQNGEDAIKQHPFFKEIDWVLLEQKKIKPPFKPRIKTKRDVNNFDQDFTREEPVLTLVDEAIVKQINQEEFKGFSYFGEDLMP
Description: FIG. 7 depicts how novel quinazoline derivative decreases oncogenic PKCε activity in neuroblastoma cells. C=concentration of PKCε in cytosol fraction, and M=concentration of PKCε in membrane fraction of cells. PKCε activity was measured as the ratio of the concentration in the membrane and cytosol fraction.
Novel quinazoline derivative decreases oncogenic PKCepsilon (PKCε) activity in neuroblastoma cells (FIG. 7). We tested whether novel quinazoline derivatives can decrease oncogenic PKCε activity. […] Oncogenic PKCε is a survival kinase for GBM cells (Okhrimentko et al., 2005).
GBM cell line T98-G (ATCC-CRL-1690) was obtained and authenticated by the American Type Culture Collection (Cat #30-2003; ATCC, Manassas, VA). Cells were cultured and maintained in low glucose Dulbecco's Modified Eagle Medium (DMEM) (Thermo Fisher Scientific) supplemented with 10% fetal bovine serum (FBS, Thermo Fisher Scientific) at 37° C. in a 5% CO2 humidified atmosphere and passed in less than 6 months. Human neuroblastoma cells. […] The condition of the cultured cells was monitored with an inverted cell culture microscope (Westover Digital AMID Model 2000, Westover Scientific, Bothell, WA), controlled by a computer, and images were captured with image acquisition software (Micron 2.0.0, Westover Scientific). […]

[7] = test system: human normal primary skin fibroblasts; experiment: Toxicity to cultured normal primary skin fibroblasts; format: cell-based
Description: FIG. 8 depicts the non-toxicity of Compound 1.
Insignificant toxicity was found for the quinazoline derivative (Compound 1): One quinazoline derivative (Compound 1) was non-toxic to cultured normal primary skin fibroblasts isolated from healthy individuals (FIG. 8). After three days of continuous treatment by 100 μM Compound 1, there was no cell death.
GBM cell line T98-G (ATCC-CRL-1690) was obtained and authenticated by the American Type Culture Collection (Cat #30-2003; ATCC, Manassas, VA). Cells were cultured and maintained in low glucose Dulbecco's Modified Eagle Medium (DMEM) (Thermo Fisher Scientific) supplemented with 10% fetal bovine serum (FBS, Thermo Fisher Scientific) at 37° C. in a 5% CO2 humidified atmosphere and passed in less than 6 months. Human neuroblastoma cells. Human SH-SY5Y neuroblastoma cells (Sigma-Aldrich) were cultured in 45% F12K, 45% Modified Eagle Medium (MEM), supplemented with 10% FBS in tissue culture incubator (37° C., 5% CO2, 90% humidity). Primary skin fibroblasts. […] The condition of the cultured cells was monitored with an inverted cell culture microscope (Westover Digital AMID Model 2000, Westover Scientific, Bothell, WA), controlled by a computer, and images were captured with image acquisition software (Micron 2.0.0, Westover Scientific).

[8] = test system: Glioblastoma multiforme (GBM); settings: cited from earlier work

CCCn1cnc2c1c(=O)n(CCCCC(C)=O)c(=O)n2C [Propentofylline, 1-(5O-oxohexyl)-3-methyl-7-propylxanthine]
induction of apoptosis in GBM cells [1]: did not induce apoptosis
invasive cells in multicellular spheroids [2]: Invasive cells were sprouting outside of the spheroid
integrin β1 expression level [3]: not able to reduce β1 integrin level
integrin β1 expression level ([3]; listed as propentofylline): significantly increases integrin β1 expression levels; also recorded: increased expression levels of β1-Integrin
GBM cell invasion and survival [4]: decreasing GBM cell invasion and survival
GBM cell invasion and survival ([4]; listed as propentofylline): decreased GBM cell invasion; also recorded: inhibits GBM survival
induction of apoptosis in GBM cells ([4]; Jacobs et al.): ineffective inducing apoptosis

c1ccc(C2Nc3ccccc3-c3nc4ccccc4n32)nc1 (centres unmarked) [Compound 1, 6-Pyridin-2-yl-5,6-dihydro-benzo[4,5]imidazo[1,2-c]quinazoline]
potency for inducing apoptosis / inhibiting GBM survival compared with Propentofylline ([1]; GBM cells, FIG. 4): more potent for inhibiting GBM survival than Propentofylline; also recorded: more potent than Propentofylline to induce apoptosis
induction of apoptosis in GBM cells [1]: induced significant apoptosis; also recorded: induce apoptosis; also recorded: caused significant apoptosis
cell viability (trypan blue exclusion) [5]: Cell viability was reduced
invasive cells in multicellular spheroids [2]: no invasive cells
potency for reducing tumor size and cell invasion compared with Propentofylline ([2]; 5th day): more potent than Propentofylline in terms of reducing tumor size and cell invasion; also recorded: more potent inhibitor of GBM cell invasion
integrin β1 expression level [3]: significantly decreases integrin β1 expression level; also recorded: decreasing β1 integrin (CD29) levels; also recorded: significantly reduced expression levels of β1-Integrin
PKCε activity (ratio of concentration in membrane and cytosol fraction) [6]: significantly decreased the PKCε activity
cell death of primary skin fibroblasts ([7]; 100 μM, three days of continuous treatment): no noticeable cell death
toxicity to primary human skin fibroblasts ([7]; cultured normal primary skin fibroblasts from healthy individuals): non-toxic

Cn1nnc2c(C(N)=O)ncn2c1=O [TMZ, temozolomide]
common side effects ([8]; patients): bone marrow suppression, genotoxic, and teratogenic

c1c[nH]c(-c2nc3ccccc3c3nc4ccccc4n23)c1 [Compound 7, 6-(1H-Pyrrol-2-yl)-benzo[4,5]imidazo[1,2-c]quinazoline]
induction of apoptosis in GBM cells [1]: caused significant apoptosis

Bevacizumab: FDA-approved immunotherapeutic agent; therapeutic antibody (Genentech)
progression-free survival at 6 months ([8]; GBM patients, % of cases): 36%
overall survival ([8]; GBM patients): 9.3 months
gastrointestinal perforation ([8]; human, in vivo): 1.5-5.4%
hypertension ([8]; human, in vivo): 5.5-11.4%
proteinuria ([8]; human, in vivo): 2.7-11.4%
thromboembolic events ([8]; human, in vivo): 3.2-11.9%
wound healing complications ([8]; human, in vivo): 0.8-3.3%
patients who developed therapeutic resistance ([8]; phase II clinical trial (Vredenburgh et al., 2007)): 40%
